Measurements reported in patent publication US20220387375A1, “TRPV1 ACTIVATION-MODULATING COMPLEX MIXTURES OF CANNABINOIDS AND/OR TERPENES” (GBS Global Biopharma, Inc., priority 2018, published 2022).
Entries after “also recorded” stand apart in the source; their conditions may differ. Like-named read-outs stand apart in the source and are kept apart here.

Molecular target: T1, TRPV1 (Rattus norvegicus, UniProt O35433)
T1 construct: FLAG; expressed in transfected cells
Assay: Whole-cell patch clamp of TRPV1 currents in HEK293 cells overexpressing TRPV1 (HEK293-V1)
Assay type: cell-based
Conditions: for inward current induced: cannabinoid at 50 (FIGS. 3A, 4A, 6A, 7A), applied at data point 60; for time course of induced TRPV1 current (sustained or inactivating): cannabinoid at 50, 5 μM myrcene or 1 μM capsaicin; for current development and inactivation: constant external calcium, internal Ca2+ 0 nM, 180 nM, 620 nM, FCa (FIGS. 23, 24); for Max I amplitude: 120 s, Ca 1 mM external, unbuffered internal calcium; for attainment of the pore-dilated state: 50 μM, induction time 25 hours (FIGS. 37-40C)
Method: HEK TRexTRPV1 were cultured in DMEM, 10% Fetal Bovine Serum, 2 mM Lglutamine, 10 μg/ml Blasticidin (Calbiochem, San Diego Calif.), 400 μg/ml Zeocin (InvivoGen, San Diego Calif.), where indicated transgene expression was induced using 1 μg/ml Tetracycline for 16-24 hrs. Unless otherwise indicated, basal expression of TRPV1 without induction was sufficient for these studies, and comparisons were made to untransfected HEK where needed. HEKTRex293 over-expressing human TRPV2, human TRPA1 and human TRPM8 were obtained from SB Drug Discovery (Glasgow, Scotland) and cultured as described above. The cannabinoids and terpenes were assayed in HEK cells that have been transfected with the TRPV1 ion channel protein. These cells are called HEK293-V1 cells.
This technique is used to study ionic currents from HEK293-V1. The voltage across the cell membrane is controlled and the ionic currents associated with changes in voltage are measured. A micropipette tip is pulled to a few micrometers in diameter followed by heating the tip to produce a smooth surface that assists in forming a high resistance seal with the cell membrane. To obtain this high resistance seal, the micropipette is pressed against a cell membrane and suction is applied. The membrane then fuses onto the glass surface creating a high resistance in the gigaohm range. This makes it possible to isolate electronically the ionic currents measured across the membrane patch or across the entire cell.
Patch-clamp experiments were performed in the whole-cell configuration at 21-25° C. Patch pipettes had resistances of 2-3 MΩ. Data was acquired with PatchMaster software (HEKA, Lambrecht, Germany), controlling an EPC-9 amplifier. Voltage ramps of 50 ms spanning the voltage range from −100 to 100 mV were delivered from a holding potential of 0 mV at a rate of 0.5 Hz over a period of 500 ms to 180 seconds (3 minutes). Voltages were corrected for a liquid junction potential of 10 mV. Currents were filtered at 2.9 kHz and digitized at 100 μs intervals. Capacitive currents were determined and corrected before each voltage ramp. The development of currents for a given potential was extracted from individual ramp current records by measuring the current amplitudes at voltages of −80 mV and +80 mV. Data were analyzed with FitMaster (HEKA, Lambrecht, Germany), and IgorPro (WaveMetrics, Lake Oswego, Oreg., USA). Where applicable, statistical errors of averaged data are given as mean±s.e.m with n determinations. The activated current amplitudes are analyzed by nA rather than pA/pF. […] Also the cell size selected for patching was in the 9 -12 pF range.
For patch-clamp recordings, HEK293 cells were kept in a standard sodium-based external Ringer's solution containing (mM): 140 NaCl, 1 CaCl2, 2 MgCl2, 2.8 KCl, 11 glucose, 10 HEPES-NaOH with a pH of 7.2 and osmolarity of 300 mOsmol. To assess the effects of external Calcium (Ca) on TRPV1 inactivation kinetics, Ca at different levels were tested including 0, 1, and 3 mM. In Experiments with zero external Ca, EGTA 10 mM was added and the Na concentration was lowered to 130 mM to maintain standard osmotic conditions at 300 mOsmol. For rapid external solution application and exchanges we used the SmartSquirt delivery system (Auto-Mate Scientific, San Francisco Calif., USA) that included four cryo tubes allowing for solution exchanges within one patch. This system included a ValveLink TTL interface between the electronic valves and the EPC10 amplifier (HEKA, Lambrecht, Germany). This electronic configuration allowed for programmable solution changes via the PatchMaster software (HEKA, Lambrecht, Germany).

[1] = CBD-induced current, internal Ca2+ 0, external Ca2+ 0 mM
[2] = CBD-induced current, internal Ca2+ 0, external Ca2+ 1 mM
[3] = CBD-induced current, internal Ca2+ 0, external Ca2+ 3 mM
[4] = CBD-induced current, internal Ca2+ 180 nM, external Ca2+ 0 mM
[5] = CBD-induced current, internal Ca2+ 180 nM, external Ca2+ 1 mM
[6] = CBD-induced current, internal Ca2+ 180 nM, external Ca2+ 3 mM
[7] = CBD-induced current, internal Ca2+ >620 nM (free Ca2+), external Ca2+ 0 mM
[8] = CBD-induced current, internal Ca2+ >620 nM (free Ca2+), external Ca2+ 1 mM
[9] = CBD-induced current, internal Ca2+ >620 nM (free Ca2+), external Ca2+ 3 mM
[10] = after cannabinoid at 50 (voltage ramp)
[11] = calculated from Imax per dose, HEK-TRPV1 patch clamp, read-out: EC50 at TRPV1

T1 sequence (O35433 whole entry): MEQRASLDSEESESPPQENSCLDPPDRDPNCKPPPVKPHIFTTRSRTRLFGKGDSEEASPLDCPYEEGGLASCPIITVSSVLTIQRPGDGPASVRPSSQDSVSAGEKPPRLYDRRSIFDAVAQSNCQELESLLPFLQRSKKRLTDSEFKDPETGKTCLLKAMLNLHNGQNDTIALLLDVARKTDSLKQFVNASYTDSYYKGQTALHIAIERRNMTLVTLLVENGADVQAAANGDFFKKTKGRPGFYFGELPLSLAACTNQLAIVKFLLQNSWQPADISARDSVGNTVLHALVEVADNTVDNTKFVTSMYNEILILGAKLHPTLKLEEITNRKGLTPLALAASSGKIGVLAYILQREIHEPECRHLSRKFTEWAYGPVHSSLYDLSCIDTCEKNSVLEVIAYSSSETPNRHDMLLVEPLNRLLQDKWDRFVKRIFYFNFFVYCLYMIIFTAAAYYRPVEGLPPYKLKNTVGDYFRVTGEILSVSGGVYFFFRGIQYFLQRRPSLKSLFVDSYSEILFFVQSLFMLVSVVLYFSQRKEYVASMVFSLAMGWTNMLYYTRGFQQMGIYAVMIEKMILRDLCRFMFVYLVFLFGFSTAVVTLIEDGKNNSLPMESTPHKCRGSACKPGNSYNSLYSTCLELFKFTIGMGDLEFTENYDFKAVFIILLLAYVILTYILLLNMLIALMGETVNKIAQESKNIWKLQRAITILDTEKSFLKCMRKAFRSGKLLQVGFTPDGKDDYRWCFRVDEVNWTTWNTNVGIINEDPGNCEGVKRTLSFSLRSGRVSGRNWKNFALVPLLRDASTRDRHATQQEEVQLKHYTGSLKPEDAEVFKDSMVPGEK

C=C(C)[C@@H]1CCC(C)=C[C@H]1c1c(O)cc(CCCCC)cc1O [CBD, Cannabidiol]
EC50: 30 µM
type of TRPV1 current recorded (CBD 30 μM, Ca 0 internally and externally): outwardly rectifying current
transition to the pore-dilated state (CBD up to 150 μM, induction times 0-25 hours, currents about 10 nA): no transition to the pore-dilated state
Max rate of activation (CBD-induced current (30 μM, FIG. 22), internal Ca2+ 0, external Ca2+ 0 mM): 1.1% per S
Max rate of activation (CBD-induced current (30 μM, FIG. 22), internal Ca2+ 0, external Ca2+ 1 mM): 1.9% per S
Max rate of activation (CBD-induced current (30 μM, FIG. 22), internal Ca2+ 0, external Ca2+ 3 mM): 3% per S
Rate of inactivation [1]: 0.41% per S
Time to max amplitude [1]: 136 S
Rate of inactivation [2]: 0.82% per S
Time to max amplitude [2]: 94 S
Rate of inactivation [3]: 0.94% per S
Time to max amplitude [3]: 82 S
Max rate of activation [4]: 1.6% per S
Rate of inactivation [4]: 0.67% per S
Time to max amplitude [4]: 108 S
Max rate of activation [5]: 1.6% per S
Rate of inactivation [5]: 0.71% per S
Time to max amplitude [5]: 116 S
Max rate of activation [6]: 2.4% per S
Rate of inactivation [6]: 0.72% per S
Time to max amplitude [6]: 92 S
Max rate of activation [7]: 0.83% per S
Rate of inactivation [7]: 0.49% per S
Time to max amplitude [7]: 160 S
Max rate of activation [8]: 1.5% per S
Rate of inactivation [8]: 1.1% per S
Time to max amplitude [8]: 120 S
Max rate of activation [9]: 2.7% per S
Rate of inactivation [9]: 1% per S
Time to max amplitude [9]: 88 S
IV relationship / TRPV1 channel state [10]: outwardly-rectifying IV curve consistent with un-dilated TRPV1 (state 1)
inward current induced: 4-6 nA
time course of induced TRPV1 current (sustained or inactivating): sustained
current development and inactivation: gradual current development, which inactivated only when internal calcium is buffered above zero
Rate of inactivation (dose 10 micromolar): 0 dpsec^−1
Time to max (dose 10 micromolar): 178 s
Max I amplitude (dose 10 micromolar): 0.8 nA
Rate of inactivation (dose 30 micromolar): 0 dpsec^−1
Time to max (dose 30 micromolar): 180 s
Max I amplitude (dose 30 micromolar): 2.2 nA
Rate of inactivation (dose 50 micromolar): .02 dpsec^−1
Time to max (dose 50 micromolar): 130 s
Max I amplitude (dose 50 micromolar): 1.6 nA
Rate of inactivation (dose 150 micromolar): .042 dpsec^−1
Time to max (dose 150 micromolar): 96 s
Max I amplitude (dose 150 micromolar): 3.5 nA

C=C(C)[C@@H]1CCC(C)=C[C@H]1c1c(O)cc(CCC)cc1O [CBDV, Cannabidivarin]
attainment of the pore-dilated state: lack of attainment of the pore-dilated state
IV relationship / TRPV1 channel state [10]: outwardly-rectifying IV curve consistent with un-dilated TRPV1 (state 1)
EC50 [11]: 56 µM
inward current induced: 2-3 nA
time course of induced TRPV1 current (sustained or inactivating): sustained
Rate of inactivation (dose 10 micromolar): 0 dpsec^−1
Time to max (dose 10 micromolar): 148 s
Max I amplitude (dose 10 micromolar): 0.5 nA
Rate of inactivation (dose 30 micromolar): .013 dpsec^−1
Time to max (dose 30 micromolar): 136 s
Max I amplitude (dose 30 micromolar): 1.5 nA
Rate of inactivation (dose 50 micromolar): .009 dpsec^−1
Time to max (dose 50 micromolar): 82 s
Max I amplitude (dose 50 micromolar): 0.9 nA
Rate of inactivation (dose 150 micromolar): .14 dpsec^−1
Time to max (dose 150 micromolar): 62 s
Max I amplitude (dose 150 micromolar): 3.9 nA

CCCCCc1cc(O)c(C/C=C(\C)CCC=C(C)C)c(O)c1 [CBG, Cannabigerol]
attainment of the pore-dilated state: lack of attainment of the pore-dilated state
IV relationship / TRPV1 channel state [10]: outwardly-rectifying IV curve consistent with un-dilated TRPV1 (state 1)
EC50 [11]: 19 µM
inward current induced: 4-5 nA
time course of induced TRPV1 current (sustained or inactivating): sustained
Rate of inactivation (dose 10 micromolar): 0 dpsec^−1
Time to max (dose 10 micromolar): 120 s
Max I amplitude (dose 10 micromolar): 0.2 nA
Rate of inactivation (dose 30 micromolar): .007 dpsec^−1
Time to max (dose 30 micromolar): 94 s
Max I amplitude (dose 30 micromolar): 0.6 nA
Rate of inactivation (dose 50 micromolar): .008 dpsec^−1
Time to max (dose 50 micromolar): 96 s
Max I amplitude (dose 50 micromolar): 0.7 nA
Rate of inactivation (dose 150 micromolar): .014 dpsec^−1
Time to max (dose 150 micromolar): 92 s
Max I amplitude (dose 150 micromolar): 0.9 nA

CCCCCc1cc(O)c2c(c1)OC(C)(C)c1ccc(C)cc1-2 [CBN, Cannabinol]
EC50: 36 µM
inward and outward current magnitude compared to 50 μM CBN (10 μM CBN): greater inward and outward current magnitude
IV relationship / TRPV1 channel state (after 10 μM CBN): becomes more linear; also recorded: partial state transition from state 1 to state 2
IV relationship / TRPV1 channel state [10]: outwardly-rectifying IV curve consistent with un-dilated TRPV1 (state 1)
inward current induced: 0.5-2 nA
time course of induced TRPV1 current (sustained or inactivating): rapidly inactivating
current development and inactivation: activated quickly, but rapidly inactivated with a slower kinetic profile
Rate of inactivation (dose 10 micromolar): 0 dpsec^−1
Time to max (dose 10 micromolar): 174 s
Max I amplitude (dose 10 micromolar): 0.4 nA
Rate of inactivation (dose 30 micromolar): 0 dpsec^−1
Time to max (dose 30 micromolar): 176 s
Max I amplitude (dose 30 micromolar): 0.6 nA
Rate of inactivation (dose 50 micromolar): .010 dpsec^−1
Time to max (dose 50 micromolar): 120 s
Max I amplitude (dose 50 micromolar): 1.5 nA
Rate of inactivation (dose 150 micromolar): .019 dpsec^−1
Time to max (dose 150 micromolar): 82 s
Max I amplitude (dose 150 micromolar): 1.8 nA
